How the values were obtained:
GST = test: Incubation with GST/GSH, cleavage of the sulfonamide bond; format: biochemical
Description: The protected title compound of formula J-1 is deprotected by GST/GSH under mild conditions. Incubations of 100 μM of this compound and 500 μM GSH with GST (0.5 mg protein /mL) are carried out in 100 mM phosphate buffer, pH 7.4 for 1 hour, at 37° C. in a volume of 0.5 mL. The cleavage of sulfonamide bond is essentially 100% complete after one hour incubation to yield the compound of formula J-2.
(§1) The protected title compound of J-1 is cleaved upon in-vitro incubation with GST/GSH. Enzymatic cleavage of J-1 yields sulfite (SO3^2−), azide (N3^−), and the glutathione-(p-nitrobenzene) conjugate.

rat hepatocytes = test: In-vitro incubation with rat hepatocytes; format: in vitro ADME
Description: (§2) The following observations were made during in-vivo (animal models) and in-vitro (cell cultures) studies of the metabolic disposition of the title compound.

human hepatocytes = test: In-vitro incubation with human hepatocytes; format: in vitro ADME
Description: as §2

CACO-2 cells = test: Metabolism in CACO-2 cell culture; format: in vitro ADME, human
Description: as §2, §1

[1] = system: Glutathione-S-transferase (GST); test: Sulfonamidase activity of commercial GST (isozyme mixture from rat liver); format: biochemical; details: title compound and GSH as substrates
Description: Indeed, most of the activity of 10 ml of rat liver cytosol extract was retained by a GSH-Sepharose column (3.9 ml bed volume), packed and equilibrated in 20 mM Hepes buffer, pH 7.5, while the majority of the cytosolic protein was found in the effluent. After the column was washed extensively with up to 1 mM GSH, it was eluted with 5, 20, and 50 mM GSH. The various fractions were dialyzed against 20 mM Hepes buffer, pH 7.5 and tested for enzymatic activity using the title compound and GSH as substrates; the fractions were then subjected to SDS-PAGE. […] The GSH dependence for activity, the ability to purify the enzyme in a single step by a GSH affinity column, and the Mr˜25,000 pointed to Glutathione-S-transferase (GST). […] The commercial preparation was a mixture of GST isozymes purified from rat liver.

GSTA3-3 = target: T1, GSTA3-3 (Rattus norvegicus, UniProt P04904); test: Sulfonamidase activity of reconstituted isozyme GSTA3-3; format: biochemical; details: A3 homodimeric isoform of rat liver cytosol
T1 construct: The commercial preparation was a mixture of GST isozymes purified from rat liver; purchased; host or cells: rat liver (tissue-derived)
T1 sequence (P04904 2-221 limits assumed): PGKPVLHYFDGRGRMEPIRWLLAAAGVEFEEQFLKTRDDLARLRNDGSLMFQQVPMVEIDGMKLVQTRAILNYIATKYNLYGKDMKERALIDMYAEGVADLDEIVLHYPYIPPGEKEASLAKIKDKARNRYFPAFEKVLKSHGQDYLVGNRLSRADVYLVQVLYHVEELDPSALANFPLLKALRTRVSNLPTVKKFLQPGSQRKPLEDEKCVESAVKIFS
Description: (§3) As GST exists in a myriad of isoforms, which are active as homodimers and heterodimers, the specific isozyme(s) which was responsible for sulfonamide bond cleavage in the title compound, was investigated. The commercial isozyme mixture was subjected to RP-HPLC on a C18 column (0.45×25 cm). The separation profile of the various isozymes was very similar to that of published work carried out in conditions almost identical to these conditions. […] The HPLC samples were subjected to lyophilization and refolded in an Na-phosphate buffer at pH 6.8. Alternatively, refolding was carried out by subjecting the HPLC samples to a 16 hours dialysis against Na-phosphate, pH 6.8 followed by a 6 hours dialysis against Na-phosphate, pH 7.4; the refolding process was carried out at 4° C. The title compound's sulfonamidase activity of the reconstituted isozymes was proven for the A3 homodimeric isoform (GSTA3-3), and for the M1 isoform (GSTM1-1) of rat liver cytosol. The identity of the A3 isozyme was confirmed by N-terminus amino acid sequence.

GSTM1-1 = target: T2, GSTM1-1 (Rattus norvegicus, UniProt P04905); test: Sulfonamidase activity of reconstituted isozyme GSTM1-1; format: biochemical; details: M1 isoform of rat liver cytosol
T2 construct: The commercial preparation was a mixture of GST isozymes purified from rat liver; purchased; host or cells: rat liver (tissue-derived)
T2 sequence (P04905 2-218 limits assumed): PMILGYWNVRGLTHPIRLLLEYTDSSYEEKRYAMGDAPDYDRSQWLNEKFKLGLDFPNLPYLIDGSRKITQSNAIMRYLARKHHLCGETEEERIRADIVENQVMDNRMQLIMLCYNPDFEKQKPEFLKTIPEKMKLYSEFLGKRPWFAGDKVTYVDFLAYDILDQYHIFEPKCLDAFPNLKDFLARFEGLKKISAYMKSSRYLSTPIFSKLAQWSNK
Description: as §3

intracellular GSH = details: cited from earlier work
[2] = In-vivo metabolic disposition in the rat
Description: as §2

[3] = In-vivo metabolic disposition in the dog
Description: as §2

cells = test: Cytotoxicity in the presence of GST inhibitors; format: cell-based
Description: Azide, N3^−, is an agent which is known to be cytotoxic to respiring cells. Azide inhibits ATP production via its interference with the cytochrome electron transport chain involved in the terminal stage of oxidative phosphorylation. The agent is markedly cytotoxic to cells relying on aerobic glycolysis/oxidative phosphorylation as a source of energy. […] Metabolism of J-1 within cells by GST releases the potent azide cytotoxin. Thus, covalent coupling of azide with the p-nitrobenzene sulfonyl moiety masks the cytotoxity of azide until cleavage by GST releases the active cytotoxin.

In the case of `CCC[C@@]1(CCc2ccccc2)CC(O)=C([C@H](CC)c2cccc(NS(=O)(=O)c3ccc(C#N)cn3)c2)C(=O)O1` (relative stereo) [J-1, [R-(R*,R*)]-5-Cyano-N-[3-[1-[5,6-dihydro-4-hydroxy-2-oxo-6-(2-phenylethyl)-6-propyl-2H-pyran-3-yl]propyl]phenyl]-2-pyridine-sulfonamide], the “cleavage of sulfonamide bond” value (GST; 100 μM compound, 500 μM GSH, GST 0.5 mg protein/mL, 100 mM phosphate buffer pH 7.4, 1 hour, 37° C.) is reported as about 100%, the “sulfonamide cleavage with release of J-2” value (rat hepatocytes) is reported as “underwent sulfonamide cleavage” and the “sulfonamide cleavage with release of J-2” value (human hepatocytes) is reported as “underwent sulfonamide cleavage”. The “sulfonamide cleavage by CACO-2 cells” value (CACO-2 cells; CACO-2, human colon adenocarcinoma cell line) was “significant sulfonamide cleavage”, the “rate of cleavage in CACO-2 cells compared with normal cells” value (CACO-2 cells; CACO-2 cells versus normal cells) was “markedly faster” and the “sulfonamidase activity of commercial GST” value [1] was “high sulfonamidase activity”. For the same molecule, the “sulfonamidase activity of reconstituted isozyme” value (GSTA3-3) was “proven” and the “sulfonamidase activity of reconstituted isozyme” value (GSTM1-1) was “proven”.

For `C=C(CC)C(=O)c1ccc(OCC(=O)O)c(Cl)c1Cl` [Ethacrynic Acid], the “effect on intracellular GSH” value (intracellular GSH) is given as “deplete intracellular GSH”.

In the case of `CCC[C@@]1(CCc2ccccc2)CC(O)=C([C@H](CC)c2cccc(N)c2)C(=O)O1` [J-2], the “circulating metabolite of the title compound in the blood” value [2] is reported as “major circulating metabolite” and the “circulating metabolite of the title compound in the blood” value [3] is reported as “major circulating metabolite”.

With “[R-(R*,R*)]-5-Cyano-N-[3-[1-[5,6-dihydro-4-hydroxy-2-oxo-6-(2-phenylethyl)-6-propyl-2H-pyran-3-yl]propyl]phenyl]-2-pyridine-sulfonamide [J-1]” the “cleavage upon in-vitro incubation with GST/GSH” value (GST; yields sulfite, azide and the glutathione-(p-nitrobenzene) conjugate) was “cleaved”, the “metabolism to form the azide in the presence of known GST inhibitors” value (CACO-2 cells; known GST inhibitors present) was “blocked” and the “metabolism in CACO-2 cell culture” value (CACO-2 cells; products compared with enzymatic GST/GSH cleavage) was “yield the same products”. The cytotoxicity (cells) was “relatively non-cytotoxic”.

From patent publication US6653331B2, “Targeted drug delivery using sulfonamide derivatives” (Pharmacia & Upjohn Company, priority 1996, dated 2003)
